# Results from publication PMC10121968, “Fosgonimeton, a Novel Positive Modulator of the HGF/MET System, Promotes Neurotrophic and Procognitive Effects in Models of Dementia” (Neurotherapeutics, 2022).
# Non-standard residues stand in square brackets, D forms with d. Residues, ends and D or L forms follow the SMILES beside them. *: point of attachment. Hexanoyl = CCCCCC(=O)*; Ahx = NCCCCCC(=O)O
# How the values were obtained:
# IL-1β = IL-1β release in LPS-challenged THP-1 macrophages (HTRF); format: cell-based, human; settings: 1 µM, 20 min pretreatment, LPS 50 ng/mL 24 h, vs LPS + vehicle
# Protocol: To determine the effect of fosgo-AM on LPS-induced cytokine release, we sought to determine the levels of interleukin-1β (IL-1β), interleukin-6 (IL-6), and tumor necrosis factor-α (TNF-α) in LPS-challenged THP-1–differentiated macrophages in the presence and absence of fosgo-AM. THP-1 monocytes were grown at 37 °C, 5% CO2 in Roswell Park Memorial Institute (RPMI) medium + 10% FBS until approximately 80% confluent. Cells were seeded in polystyrene-treated 96-well cell culture plates at approximately 50,000 cells/well in 100-µL complete media. 100 µL Phorbol myristate acetate was then added to each well for a final concentration of 100 ng/mL. The plate was then incubated for 3 days at 37 °C, 5% CO2 to prime the monocytes into macrophages. […] For cytokine quantification, cell culture supernatant was assayed by HTRF kits to assess levels of IL-1β (Human IL-1β kit, #62HIL1BPEG, Cisbio, Codolet, France) and IL-6 (Human IL-6 kit, 62HIL06PET, Cisbio, Codolet, France), and by ELISA (Human TNF-α ELISA kit, KHC3011, ThermoFisher, Waltham, Massachusetts) to determine the levels of TNF-α. […] Fluorescence emission at 2 different wavelengths (665 nm and 620 nm) were measured on an Envision plate reader (PerkinElmer, Waltham, Massachusetts), and HTRF ratio of the acceptor and donor emission signals for each well was calculated as follows: HTRF ratio = (665 nm/620 nm) × 10,000. […]
# [1] = system: primary rat hippocampal neurons; assay: Synaptogenesis assay (synaptobrevin-II staining); format: cell-based; settings: 8 days, vs vehicle
# Protocol: On day 0, rat hippocampal neurons from newborn pups were isolated and cultured in brain neuronal culture medium (neurobasal medium supplemented with 5% FBS, 2% B-27 supplement, and 0.003% gentamycin) at 37 °C under 5% CO2. At 1 day in vitro (DIV1), cells were transferred to a poly-D-lysine–coated 24-well plate at approximately 10,000 cells/well. Cells were then grown in […] of serum-free medium and treated with the following: 0.1% dimethyl sulfoxide (DMSO; vehicle), 10 nM dihydrotestosterone (positive control), 10 nM fosgo-AM, 1 nM fosgo-AM, 5 ng/ml HGF, or 5 ng/ml HGF + 1 nM fosgo-AM. All treatments contained a final concentration of 0.1% DMSO. For the neurite outgrowth assay, treatment media were refreshed on DIV3, and cells were processed for analysis on DIV4. For the synaptogenesis assay, treatment media were refreshed on DIV3 and DIV6, and cells were processed for analysis on DIV8. Processing for both the neurite outgrowth and the synaptogenesis assays was performed as follows: media were removed, and cells were fixed with 100% methanol for 20 min at RT before methanol was aspirated and each well was washed twice with Dulbecco’s phosphate-buffered saline (DPBS). Cells were permeabilized using 0.02% […] (ThermoFisher, Waltham, Massachusetts) in DPBS for 2 min at RT without shaking, and plates were blocked with 5% bovine serum albumin (BSA) in DPBS for 1 h at RT. […] Ten images of single cells from a total of 2 assays were analyzed using NeuroJ plug-in for ImageJ to assess neurite outgrowth, as neurite length and the number of branches per neuron were counted for each cell. For the synaptogenesis assay, synaptic count (number of synapses) and synaptic strength (relative abundance of presynaptic vesicles per synapse as measured by synaptobrevin-II fluorescence intensity) were quantified for each cell. Data were assessed for normality (Shapiro–Wilk) and homoscedasticity (Brown-Forsythe). […]
structure (smiles),measurement,setting,value
CCCCCC(=O)N[C@@H](Cc1ccc(O)cc1)C(=O)N[C@H](C(=O)NCCCCCC(N)=O)[C@@H](C)CC [fosgo-AM] (Hexanoyl-Tyr-Ile-[Ahx]-NH2),IL-1β release,IL-1β,significant decrease
same,number of synapses (synaptic count),[1]; 1 nM fosgo-AM + 5 ng/mL HGF,significantly increased the number of synapses
same,synaptobrevin-II immunofluorescence intensity (synaptic strength),[1]; 1 nM fosgo-AM + 5 ng/mL HGF,significantly enhanced immunofluorescence intensity of synaptobrevin-II
same,synaptobrevin-II immunofluorescence intensity (synaptic strength),[1]; 1 nM,significantly enhanced immunofluorescence intensity of synaptobrevin-II
